Measurements taken from ChEMBL document CHEMBL1126173, “Molecular recognition of amiloride analogs: a molecular electrostatic potential analysis. 1. Pyrazine ring modifications” (J Med Chem, 1992).

Legend:
Settings in all cases: rana ridibundus
[1] = Inhibitory activity against epithelial sodium channels- NA+/H+ antiporter, Na+/ca+2 exchanger, Na+/ca+2 channels, K+ channel, nicotinic acetylcholine receptor and Na+/K+ ATPase(microscopic dissociation constant)
[2] = Inhibitory activity against epithelial sodium channels- NA+/H+ antiporter, Na+/ca+2 exchanger, Na+/ca+2 channels, K+ channel, nicotinic acetylcholine receptor and Na+/K+ ATPase
[3] = Blocking time for inhibition of epithelial sodium channels- NA+/H+ antiporter, Na+/ca+2 exchanger, Na+/ca+2 channels, K+ channel, nicotinic acetylcholine receptor and Na+/K+ ATPase
[4] = Inhibitory activity against epithelial sodium channels- NA+/H+ antiporter, Na+/ca+2 exchanger, Na+/ca+2 channels, K+ channel, nicotinic acetylcholine receptor and Na+/K+ ATPase (microscopic dissociation constant); format: ADME

| Compound | Koff [1] [s⁻¹] | Kon [2] [M⁻¹ s⁻¹] | Block time [3] [ms] | Koff [4] [s⁻¹] |
| --- | --- | --- | --- | --- |
| Nc1nc(N)c(C(=O)NC(N)N)nc1Br | 5.58 | 1.419e+07 | 179 | – |
| Nc1cnc(C(=O)NC(N)N)c(N)n1 | – | 1.447e+07 | 6 | 176.25 |
| Nc1nc(N)c(C(=O)NC(N)N)nc1Cl | – | 1.317e+07 | 255 | 3.93 |
| Nc1nc(N)c(C(=O)NC(N)N)nc1F | – | 1.354e+07 | 31 | 32.2 |
| Nc1nc(Cl)c(Cl)nc1C(=O)NC(N)N | – | 5.16e+06 | 7 | 151.1 |
| Nc1nc(N)c(C(=O)NC(N)N)nc1I | – | 1.143e+07 | 57 | 17.41 |
| Nc1ncc(Cl)nc1C(=O)NC(N)N | – | 3.32e+06 | 92 | 10.89 |
